# Assay results as given in ChEMBL document CHEMBL4765468, “Development of Novel Tetrahydroquinoline Inhibitors of NLRP3 Inflammasome for Potential Treatment of DSS-Induced Mouse Colitis” (J Med Chem, 2021).
# What was measured:
# THP-1 = assay: Cytotoxicity in human THP-1 cells assessed as reduction in cell viability incubated for 72 hrs by MTT assay; format: cell-based; settings: THP-1, 72 h
# [1] = target: NACHT, LRR and PYD domains-containing protein 3 (Homo sapiens, UniProt Q96P20); assay: Inhibition of NLRP3 in PMA-stimulated human THP-1 cells assessed as reduction in IL-1beta release pre-treated for 24 hrs followed by stimulation with LPS for 3 hrs and ATP for 1 hr by ELISA analysis; format: cell-based
# Chain of NACHT, LRR and PYD domains-containing protein 3 (Q96P20 whole entry, the tested form may be a part): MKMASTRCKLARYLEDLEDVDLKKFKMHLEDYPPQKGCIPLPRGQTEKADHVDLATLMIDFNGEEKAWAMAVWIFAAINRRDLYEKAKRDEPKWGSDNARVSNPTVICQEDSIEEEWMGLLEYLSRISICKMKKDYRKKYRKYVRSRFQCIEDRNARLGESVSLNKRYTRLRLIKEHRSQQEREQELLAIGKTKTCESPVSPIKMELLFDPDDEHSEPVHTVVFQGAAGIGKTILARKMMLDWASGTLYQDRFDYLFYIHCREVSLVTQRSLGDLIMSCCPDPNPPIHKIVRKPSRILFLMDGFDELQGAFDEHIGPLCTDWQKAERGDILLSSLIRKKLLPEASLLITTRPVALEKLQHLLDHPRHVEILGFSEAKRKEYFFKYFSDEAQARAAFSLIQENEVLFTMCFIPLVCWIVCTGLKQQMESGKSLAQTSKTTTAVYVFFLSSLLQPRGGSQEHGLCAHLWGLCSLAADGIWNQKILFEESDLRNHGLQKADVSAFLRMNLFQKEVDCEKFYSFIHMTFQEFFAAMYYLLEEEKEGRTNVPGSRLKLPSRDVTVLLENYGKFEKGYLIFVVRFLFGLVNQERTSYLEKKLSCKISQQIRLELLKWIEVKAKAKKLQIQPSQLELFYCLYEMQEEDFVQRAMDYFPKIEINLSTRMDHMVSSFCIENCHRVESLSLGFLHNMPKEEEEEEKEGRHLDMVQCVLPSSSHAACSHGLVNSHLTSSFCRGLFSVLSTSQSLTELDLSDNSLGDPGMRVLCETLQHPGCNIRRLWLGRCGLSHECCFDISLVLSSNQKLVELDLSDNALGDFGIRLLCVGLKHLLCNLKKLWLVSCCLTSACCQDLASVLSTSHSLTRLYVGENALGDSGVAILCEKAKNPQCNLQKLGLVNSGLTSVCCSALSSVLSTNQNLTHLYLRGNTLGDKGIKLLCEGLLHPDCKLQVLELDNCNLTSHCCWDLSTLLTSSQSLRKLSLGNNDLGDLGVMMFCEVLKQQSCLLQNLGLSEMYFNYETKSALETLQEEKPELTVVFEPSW
IC50 [1] [µM],SMILES,IC50 (THP-1) [µM]
–,CC(=O)Nc1ccc(S(=O)(=O)N(c2ccc3c(c2)N(S(C)(=O)=O)CCC3)S(=O)(=O)c2ccc(NC(C)=O)cc2)cc1,> 100
–,CS(=O)(=O)N1CCCc2ccc(N(S(=O)(=O)c3cccs3)S(=O)(=O)c3cccs3)cc21,> 100
–,CC(C)(O)c1coc(S(=O)(=O)NC(=O)Nc2c3c(cc4c2CCC4)CCC3)c1,98.8
–,COc1ccc(S(=O)(=O)N(c2ccc3c(c2)N(S(C)(=O)=O)CCC3)S(=O)(=O)c2ccc(OC)cc2)cc1,90.9
–,CS(=O)(=O)N1CCCc2ccc(N(S(=O)(=O)c3cc(C(F)(F)F)cc(C(F)(F)F)c3)S(=O)(=O)c3cc(C(F)(F)F)cc(C(F)(F)F)c3)cc21,34.7
–,COC(=O)c1ccc(S(=O)(=O)N(c2ccc3c(c2)N(S(C)(=O)=O)CCC3)S(=O)(=O)c2ccc(C(=O)OC)cc2)cc1,> 100
–,CS(=O)(=O)N1CCCc2ccc(N(S(=O)(=O)c3ccc(F)cc3)S(=O)(=O)c3ccc(F)cc3)cc21,> 100
–,CS(=O)(=O)N1CCCc2ccc(N(S(=O)(=O)c3ccccc3)S(=O)(=O)c3ccccc3)cc21,> 100
–,CS(=O)(=O)N1CCCc2ccc(N(S(=O)(=O)c3ccccc3F)S(=O)(=O)c3ccccc3F)cc21,> 100
–,CCS(=O)(=O)N(c1ccc2c(c1)N(S(C)(=O)=O)CCC2)S(=O)(=O)CC,> 100
–,CS(=O)(=O)N1CCCc2ccc(N(S(=O)(=O)c3cccc4ccccc34)S(=O)(=O)c3cccc4ccccc34)cc21,> 100
–,CCCS(=O)(=O)N(c1ccc2c(c1)N(S(C)(=O)=O)CCC2)S(=O)(=O)CCC,98.8
–,CS(=O)(=O)N1CCCc2ccc(N(S(=O)(=O)c3ccc4ccccc4c3)S(=O)(=O)c3ccc4ccccc4c3)cc21,97.2
–,CS(=O)(=O)N1CCCc2ccc(N(S(=O)(=O)Cc3ccccc3)S(=O)(=O)Cc3ccccc3)cc21,> 100
–,CS(=O)(=O)N1CCCc2ccc(N(S(=O)(=O)CCN3C(=O)c4ccccc4C3=O)S(=O)(=O)CCN3C(=O)c4ccccc4C3=O)cc21,> 100
–,CS(=O)(=O)N1CCCc2ccc(N(S(=O)(=O)c3ccc([N+](=O)[O-])cc3)S(=O)(=O)c3ccc([N+](=O)[O-])cc3)cc21,65.3
–,CS(=O)(=O)N1CCCc2ccc(N(S(C)(=O)=O)S(C)(=O)=O)cc21,> 100
13.7,CS(=O)(=O)N1CCCc2ccc(N(S(=O)(=O)c3ccccc3[N+](=O)[O-])S(=O)(=O)c3ccccc3[N+](=O)[O-])cc21,> 100
–,CS(=O)(=O)N1CCCc2ccc(N(S(=O)(=O)c3cccnc3)S(=O)(=O)c3cccnc3)cc21,71.1
–,Cc1ccc(S(=O)(=O)N(c2ccc3c(c2)N(S(C)(=O)=O)CCC3)S(=O)(=O)c2ccc(C)cc2)cc1,78.4
–,CS(=O)(=O)N1CCCc2ccc(N(S(=O)(=O)c3ccc(C#N)cc3)S(=O)(=O)c3ccc(C#N)cc3)cc21,35.9
–,CS(=O)(=O)N1CCCc2ccc(N(S(=O)(=O)c3cccc(F)c3)S(=O)(=O)c3cccc(F)c3)cc21,71.8
–,CS(=O)(=O)N1CCCc2ccc(N(S(=O)(=O)c3ccc(Br)cc3)S(=O)(=O)c3ccc(Br)cc3)cc21,66.6
–,CS(=O)(=O)N1CCCc2ccc(N(S(=O)(=O)c3ccc(C(F)(F)F)cc3)S(=O)(=O)c3ccc(C(F)(F)F)cc3)cc21,8.32
–,CS(=O)(=O)N1CCCc2ccc(N(S(=O)(=O)c3ccc(Cl)cc3)S(=O)(=O)c3ccc(Cl)cc3)cc21,> 100
–,CS(=O)(=O)N1CCCc2ccc(N(S(=O)(=O)c3ccc(-c4ccccc4)cc3)S(=O)(=O)c3ccc(-c4ccccc4)cc3)cc21,> 100
–,CCCCS(=O)(=O)N(c1ccc2c(c1)N(S(C)(=O)=O)CCC2)S(=O)(=O)CCCC,95.5
